This passage reports pest or weed control results from patent publication US10206394B2, “Herbicidal compounds” (Syngenta Participations AG, priority 2014, dated 2019).

Holding throughout (assay): Glasshouse assay for herbicidal activity (pre- and post-emergence), percentage phytotoxicity
Common to all, as to format: in vivo

One assay concerns Avena fatua (AVEFA). To be noted: Avena fatua. Summed up: (§1)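 Seeds were sown in standard soil in pots and grown one day (pre-emergence) or about 12 days (post-emergence) before herbicide application. Plants were kept at 24/18 °C (warm-climate) or 20/16 °C (cool-climate) day/night, 16 h light, 65% humidity, watered twice daily, and damage was scored visually at 15 DAA (POST) or 20 DAA (PRE).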

For assay [1], the system named is Echinochloa crus-galli (ECHCG). To be noted: Echinochloa crus-galli. In outline: as §1
A further assay deals with Lolium perenne (LOLPE). The settings on record: Lolium perenne. Summed up:
as §1

The subject of assay [2] is Alopecurus myosuroides (ALOMY). To be noted: Alopecurus myosuroides. Summed up:
as §1

Where [3] appears, read: post-emergence, 360 h, 250 g/ha, post-emergence, 15 DAA, visual assessment (100%=total damage, 0%=no damage), read-out: Post-emergence herbicidal activity (percentage phytotoxicity) AVEFA POST.
The mark [4] stands for this setting: pre-emergence, 480 h, 250 g/ha, pre-emergence, 20 DAA, visual assessment (100%=total damage, 0%=no damage), read-out: Pre-emergence herbicidal activity (percentage phytotoxicity) AVEFA PRE.
Where [5] appears, read: post-emergence, 360 h, 250 g/ha, post-emergence, 15 DAA, visual assessment (100%=total damage, 0%=no damage), read-out: Post-emergence herbicidal activity (percentage phytotoxicity) ECHCG POST.
The mark [6] stands for this setting: pre-emergence, 480 h, 250 g/ha, pre-emergence, 20 DAA, visual assessment (100%=total damage, 0%=no damage), read-out: Pre-emergence herbicidal activity (percentage phytotoxicity) ECHCG PRE.
[7] abbreviates: post-emergence, 360 h, 250 g/ha, post-emergence, 15 DAA, visual assessment (100%=total damage, 0%=no damage), read-out: Post-emergence herbicidal activity (percentage phytotoxicity) LOLPE POST.
Where [8] appears, read: pre-emergence, 480 h, 250 g/ha, pre-emergence, 20 DAA, visual assessment (100%=total damage, 0%=no damage), read-out: Pre-emergence herbicidal activity (percentage phytotoxicity) LOLPE PRE.
[9] abbreviates: post-emergence, 360 h, 250 g/ha, post-emergence, 15 DAA, visual assessment (100%=total damage, 0%=no damage), read-out: Post-emergence herbicidal activity (percentage phytotoxicity) ALOMY POST.
Where [10] appears, read: pre-emergence, 480 h, 250 g/ha, pre-emergence, 20 DAA, visual assessment (100%=total damage, 0%=no damage), read-out: Pre-emergence herbicidal activity (percentage phytotoxicity) ALOMY PRE.
The mark [11] stands for this setting: post-emergence, 360 h, POST-emergence, rate 250 g/ha, visual score 15 DAA (100%=total damage, 0%=no damage), read-out: Post-emergence herbicidal activity (percentage phytotoxicity) AVEFA POST.
Setting [12] is: pre-emergence, 480 h, PRE-emergence, rate 250 g/ha, visual score 20 DAA (100%=total damage, 0%=no damage), read-out: Pre-emergence herbicidal activity (percentage phytotoxicity) AVEFA PRE.
[13] abbreviates: post-emergence, 360 h, POST-emergence, rate 250 g/ha, visual score 15 DAA (100%=total damage, 0%=no damage), read-out: Post-emergence herbicidal activity (percentage phytotoxicity) ECHCG POST.
Setting [14] is: pre-emergence, 480 h, PRE-emergence, rate 250 g/ha, visual score 20 DAA (100%=total damage, 0%=no damage), read-out: Pre-emergence herbicidal activity (percentage phytotoxicity) ECHCG PRE.
Where [15] appears, read: post-emergence, 360 h, POST-emergence, rate 250 g/ha, visual score 15 DAA (100%=total damage, 0%=no damage), read-out: Post-emergence herbicidal activity (percentage phytotoxicity) LOLPE POST.
Where [16] appears, read: pre-emergence, 480 h, PRE-emergence, rate 250 g/ha, visual score 20 DAA (100%=total damage, 0%=no damage), read-out: Pre-emergence herbicidal activity (percentage phytotoxicity) LOLPE PRE.
Setting [17] is: post-emergence, 360 h, POST-emergence, rate 250 g/ha, visual score 15 DAA (100%=total damage, 0%=no damage), read-out: Post-emergence herbicidal activity (percentage phytotoxicity) ALOMY POST.
Setting [18] is: pre-emergence, 480 h, PRE-emergence, rate 250 g/ha, visual score 20 DAA (100%=total damage, 0%=no damage), read-out: Pre-emergence herbicidal activity (percentage phytotoxicity) ALOMY PRE.
[19] abbreviates: post-emergence, 360 h, Rate 250 g/ha, post-emergence, assessed visually 15 DAA, 100%=total damage, 0%=no damage, read-out: Post-emergence herbicidal activity (percentage phytotoxicity) AVEFA POST.
[20] abbreviates: pre-emergence, 480 h, Rate 250 g/ha, pre-emergence, assessed visually 20 DAA, 100%=total damage, 0%=no damage, read-out: Pre-emergence herbicidal activity (percentage phytotoxicity) AVEFA PRE.
The mark [21] stands for this setting: post-emergence, 360 h, Rate 250 g/ha, post-emergence, assessed visually 15 DAA, 100%=total damage, 0%=no damage, read-out: Post-emergence herbicidal activity (percentage phytotoxicity) ECHCG POST.
[22] abbreviates: pre-emergence, 480 h, Rate 250 g/ha, pre-emergence, assessed visually 20 DAA, 100%=total damage, 0%=no damage, read-out: Pre-emergence herbicidal activity (percentage phytotoxicity) ECHCG PRE.
Where [23] appears, read: post-emergence, 360 h, Rate 250 g/ha, post-emergence, assessed visually 15 DAA, 100%=total damage, 0%=no damage, read-out: Post-emergence herbicidal activity (percentage phytotoxicity) LOLPE POST.
Where [24] appears, read: pre-emergence, 480 h, Rate 250 g/ha, pre-emergence, assessed visually 20 DAA, 100%=total damage, 0%=no damage, read-out: Pre-emergence herbicidal activity (percentage phytotoxicity) LOLPE PRE.
[25] abbreviates: post-emergence, 360 h, Rate 250 g/ha, post-emergence, assessed visually 15 DAA, 100%=total damage, 0%=no damage, read-out: Post-emergence herbicidal activity (percentage phytotoxicity) ALOMY POST.
[26] abbreviates: pre-emergence, 480 h, Rate 250 g/ha, pre-emergence, assessed visually 20 DAA, 100%=total damage, 0%=no damage, read-out: Pre-emergence herbicidal activity (percentage phytotoxicity) ALOMY PRE.

SMILES strings stand for the structures. Where two headings read alike, the source gives them in different places.

For `Cc1cc(-c2ncc(Cl)cc2C#N)cc(C)c1C1C(=O)CC(CC(=O)NC(C)(C)C)C1=O` (stereo not drawn) [Compound B48], the pest or weed control at 250 g/ha in the assay with Avena fatua (AVEFA) (setting [3]) worked out at 80%; in the assay on Avena fatua (AVEFA) (setting [4]) it was 30%; in assay [1] (setting [5]), 100%; in assay [1] (setting [6]) it was 90%; in the assay on Lolium perenne (LOLPE) (setting [7]), 90%; in the assay on Lolium perenne (LOLPE) (setting [8]), 80%. Moreover, the results for the pest or weed control at 250 g/ha in assay [2] (setting [9]) and in assay [2] (setting [10]) were 80% and 90%, respectively.
Regarding `C/C=C/c1cc(C)c(C2C(=O)CC(CC(=O)N3CCOCC3)C2=O)c(C)c1` (stereo not drawn) [Compound B172], the pest or weed control at 250 g/ha came out at 90% with Avena fatua (AVEFA) (setting [11]); 80% with Avena fatua (AVEFA) (setting [12]); 100% in assay [1] (setting [13]); 100% in assay [1] (setting [14]); 90% with Lolium perenne (LOLPE) (setting [15]); 100% in the assay with Lolium perenne (LOLPE) (setting [16]). Further, the pest or weed control at 250 g/ha came out at 90% in assay [2] (setting [17]) and 80% in assay [2] (setting [18]).
Regarding `Cc1cc(-c2ncc(Cl)cc2F)cc(C)c1C1C(=O)CC(CC(=O)NCc2ccccc2F)C1=O` (stereo not drawn) [Compound A118], the pest or weed control at 250 g/ha in the assay with Avena fatua (AVEFA) (setting [19]) was found to be 100%; with Avena fatua (AVEFA) (setting [20]), 100%; in assay [1] (setting [21]), 100%; in assay [1] (setting [22]), 100%; in the assay on Lolium perenne (LOLPE) (setting [23]), 100%; in the assay on Lolium perenne (LOLPE) (setting [24]), 90%. Also, the values for the pest or weed control at 250 g/ha in assay [2] (setting [25]) and in assay [2] (setting [26]) were 90% and 80%, respectively.
Consider `Cc1cc(-c2ncc(Cl)cc2F)cc(C)c1C1C(=O)CC(CC(=O)NCC2CC2C(F)F)C1=O` (stereo not drawn) [Compound B143], for which the pest or weed control at 250 g/ha with Avena fatua (AVEFA) (setting [3]) stood at 100%; in the assay with Avena fatua (AVEFA) (setting [4]), 90%; in assay [1] (setting [5]), 100%; in assay [1] (setting [6]), 100%; in the assay on Lolium perenne (LOLPE) (setting [7]), 100%; with Lolium perenne (LOLPE) (setting [8]) it was 100%. In addition, the pest or weed control at 250 g/ha in assay [2] (setting [9]) worked out at 100%; in assay [2] (setting [10]) it was 90%.
Regarding `C#CC(C)(C)NC(=O)CC1CC(=O)C(c2c(C)cc(-n3cc(Cl)cn3)cc2C)C1=O` (stereo not drawn) [Compound B313], the pest or weed control at 250 g/ha with Avena fatua (AVEFA) (setting [11]) is 70%; in the assay with Avena fatua (AVEFA) (setting [12]), 80%; in assay [1] (setting [13]) it was 90%; in assay [1] (setting [14]), 100%; in the assay on Lolium perenne (LOLPE) (setting [15]) it was 70%; in the assay on Lolium perenne (LOLPE) (setting [16]), 90%. Further, the pest or weed control at 250 g/ha in assay [2] (setting [17]) and in assay [2] (setting [18]) was 90% each time.
On to `C=CCOCC(C)(C)NC(=O)CC1CC(=O)C(c2c(C)cc(C#CC)cc2C)C1=O` (stereo not drawn) [Compound A64], for which the pest or weed control at 250 g/ha with Avena fatua (AVEFA) (setting [19]) amounted to 90%; in the assay on Avena fatua (AVEFA) (setting [20]), 70%; in assay [1] (setting [21]), 100%; in assay [1] (setting [22]), 100%; with Lolium perenne (LOLPE) (setting [23]) it was 70%; in the assay with Lolium perenne (LOLPE) (setting [24]), 80%. Further, the pest or weed control at 250 g/ha is 90% in assay [2] (setting [25]) and 70% in assay [2] (setting [26]).
Regarding `Cc1cc(-c2ncc(Cl)cn2)cc(C)c1C1=C(OC(=O)c2ccc(F)cc2)CC(CC(=O)NC(C)(C)C)C1=O` (stereo not drawn) [Compound P2], the pest or weed control at 250 g/ha in the assay on Avena fatua (AVEFA) (post-emergence, 360 h, post-emergence, 250 g/ha, 15 DAA, visual score (100%=total damage; 0%=no damage), read-out: AVEFA POST herbicidal activity (percentage phytotoxicity)) was 100%; in the assay with Avena fatua (AVEFA) (pre-emergence, 480 h, pre-emergence, 250 g/ha, 20 DAA, visual score (100%=total damage; 0%=no damage), read-out: AVEFA PRE herbicidal activity (percentage phytotoxicity)), 90%; in assay [1] (post-emergence, 360 h, post-emergence, 250 g/ha, 15 DAA, visual score (100%=total damage; 0%=no damage), read-out: ECHCG POST herbicidal activity (percentage phytotoxicity)), 100%; in assay [1] (pre-emergence, 480 h, pre-emergence, 250 g/ha, 20 DAA, visual score (100%=total damage; 0%=no damage), read-out: ECHCG PRE herbicidal activity (percentage phytotoxicity)), 100%; with Lolium perenne (LOLPE) (post-emergence, 360 h, post-emergence, 250 g/ha, 15 DAA, visual score (100%=total damage; 0%=no damage), read-out: LOLPE POST herbicidal activity (percentage phytotoxicity)), 100%; in the assay on Lolium perenne (LOLPE) (pre-emergence, 480 h, pre-emergence, 250 g/ha, 20 DAA, visual score (100%=total damage; 0%=no damage), read-out: LOLPE PRE herbicidal activity (percentage phytotoxicity)), 100%. In addition, the pest or weed control at 250 g/ha was found to be 100% in assay [2] (post-emergence, 360 h, post-emergence, 250 g/ha, 15 DAA, visual score (100%=total damage; 0%=no damage), read-out: ALOMY POST herbicidal activity (percentage phytotoxicity)) and 90% in assay [2] (pre-emergence, 480 h, pre-emergence, 250 g/ha, 20 DAA, visual score (100%=total damage; 0%=no damage), read-out: ALOMY PRE herbicidal activity (percentage phytotoxicity)).
For `Cc1cc(OCC(F)(F)F)cc(C)c1C1C(=O)CC(CC(=O)NCc2cccc(Cl)c2)C1=O` (stereo not drawn) [Compound B204], the pest or weed control at 250 g/ha worked out at 100% in the assay with Avena fatua (AVEFA) (setting [11]); 80% in the assay on Avena fatua (AVEFA) (setting [12]); 100% in assay [1] (setting [13]); 90% in assay [1] (setting [14]); 90% with Lolium perenne (LOLPE) (setting [15]); 90% in the assay on Lolium perenne (LOLPE) (setting [16]). Moreover, the pest or weed control at 250 g/ha in assay [2] (setting [17]) was found to be 100%; in assay [2] (setting [18]), 90%.
With `Cc1cc(-c2ncc(Cl)cn2)cc(C)c1C1C(=O)CC(CC(=O)NCc2cccs2)C1=O` (stereo not drawn) [Compound A139], the pest or weed control at 250 g/ha in the assay on Avena fatua (AVEFA) (setting [19]) was 30%; in the assay with Avena fatua (AVEFA) (setting [20]) it was 0%; in assay [1] (setting [21]), 20%; in assay [1] (setting [22]), 90%; with Lolium perenne (LOLPE) (setting [23]), 10%; in the assay on Lolium perenne (LOLPE) (setting [24]), 0%. Moreover, the pest or weed control at 250 g/ha in assay [2] (setting [25]) came to 10%; in assay [2] (setting [26]) it was 0%.
